Measured values as given in article PMC8482806, “A Novel Blood-Brain Barrier-Permeable Chemotherapeutic Agent for the Treatment of Glioblastoma” (Cureus, 2021).

Molecular target: T1, hLAT2 (Homo sapiens, UniProt Q9UHI5)
T1 construct: host or cells: LLC-PK1 (tetracycline-inducible, Invitrogen Gateway pT-REx System)
T1 sequence (Q9UHI5 1-535): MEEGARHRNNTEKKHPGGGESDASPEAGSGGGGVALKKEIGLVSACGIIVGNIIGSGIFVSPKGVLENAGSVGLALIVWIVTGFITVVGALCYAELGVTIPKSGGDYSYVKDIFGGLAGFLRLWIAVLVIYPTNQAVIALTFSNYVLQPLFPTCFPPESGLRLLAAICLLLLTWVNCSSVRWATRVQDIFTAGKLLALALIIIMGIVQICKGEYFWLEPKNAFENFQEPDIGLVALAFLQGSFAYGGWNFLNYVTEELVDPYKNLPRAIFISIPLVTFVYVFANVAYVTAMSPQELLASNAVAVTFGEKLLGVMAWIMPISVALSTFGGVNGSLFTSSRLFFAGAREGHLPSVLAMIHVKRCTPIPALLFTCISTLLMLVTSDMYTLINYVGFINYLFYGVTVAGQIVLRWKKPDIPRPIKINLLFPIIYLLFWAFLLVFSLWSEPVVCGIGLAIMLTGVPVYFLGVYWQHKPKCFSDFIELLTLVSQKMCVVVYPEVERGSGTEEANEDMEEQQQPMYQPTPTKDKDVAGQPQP
T1 sequence (P08195 1-529 partner): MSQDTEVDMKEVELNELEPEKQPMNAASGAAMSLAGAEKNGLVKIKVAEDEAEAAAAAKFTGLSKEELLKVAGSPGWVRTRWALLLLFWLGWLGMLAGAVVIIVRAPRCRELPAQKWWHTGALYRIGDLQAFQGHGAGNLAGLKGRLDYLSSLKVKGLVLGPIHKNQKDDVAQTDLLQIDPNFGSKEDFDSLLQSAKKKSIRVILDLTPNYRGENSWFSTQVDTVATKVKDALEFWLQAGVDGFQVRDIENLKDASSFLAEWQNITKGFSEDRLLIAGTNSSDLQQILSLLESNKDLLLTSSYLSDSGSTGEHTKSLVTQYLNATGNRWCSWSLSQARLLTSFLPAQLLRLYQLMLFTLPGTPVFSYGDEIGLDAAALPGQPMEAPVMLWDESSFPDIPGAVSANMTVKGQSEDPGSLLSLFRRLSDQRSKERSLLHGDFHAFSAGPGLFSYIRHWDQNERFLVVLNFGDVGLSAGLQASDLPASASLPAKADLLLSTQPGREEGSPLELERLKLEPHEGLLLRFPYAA
Assay: Substrate transport inhibition, [3H]-leucine uptake in LLC-PK1 cells expressing hLAT2
Format: cell-based
Details: [3H]-leucine, LLC-PK1 LAT2-expressing cells, 15 minutes at room temperature; read-out: IC50, inhibition of substrate transport (LAT2)
Protocol: Substrate transport inhibition studies were conducted with LLC-PK1 cells inducibly expressing either hLAT1 or hLAT2. Cells were plated in growth media with 1 μg/mL doxycycline at 30,000 cells/well in 96-well plates. Sixteen hours after plating, cells were treated with butyrate at a final concentration of 5 mM. The following day, cells were washed with PBS and incubated in the presence or absence of various concentrations of QBS10072S with 30,000 cpm/well of either [3H]-gabapentin (LAT1) or [3H]-leucine (LAT2) in PBS for 15 minutes at room temperature. The non-specific cell-bound activity was determined by the addition of 5 mM unlabeled gabapentin (LAT1) or leucine (LAT2). Unincorporated radioactivity was removed, and cells were washed three times with ice-cold PBS. Cells were lysed by adding scintillation fluid to each well, and cell-associated radioactivity was determined via scintillation counting using a multichannel 96-well plate reader (MicroBeta Trilux, Perkin Elmer, Waltham, MA). Data were expressed as the percent of specific radioactivity uptake in wells with no compound added. LC50s were determined by non-linear curve-fitting using GraphPad Prism (San Diego, CA).

Structure (SMILES): Cc1ccc(N(CCCl)CCCl)cc1C[C@H](N)CC(=O)O [QBS10072S, (+)-(3S)-amino-4-[5-[bis(2-chloroethyl)amino]-2-methyl-phenyl]butanoic acid]
- IC50: 1100 µM
